# How the values were obtained:
# [1] = Stability of native folate species in solution (method of Lu et al.), repeated LC-MS injection over 96 h
# Description: Native folate species were dissolved in 50:50 methanol:water, 0.1% ascorbic acid, 20 mM ammonium acetate, pH = 6.2, according to the method disclosed in Lu et al. After mixing, they were incubated at 4 °C in the auto sampler and injected repeatedly over a time span of 96h.
# [2] = absence of excess formaldehyde, non-alkaline pH (Strandler et al.); cited from earlier work
# [3] = tested on: HepG2 cells; assay: Methotrexate inhibition experiment in HepG2 cells, LC-MS of folate pools and C1 metabolites; format: cell-based, Human; conditions: 20 µM, 16 h
# Description: Inhibitors of the folate cycle are widely employed in chemotherapeutic treatment of cancer (Gonen et al.). Human liver cancer cell line HepG2 was therefore treated with methotrexate, which inhibits DHFR as trimethoprim does in bacteria: • HepG2 cells were acquired from ATCC (ATCC® HB-8065™) and grown in T75 flasks in RPMI1640 (Gibco, Thermo Fisher Scientific, Switzerland) containing 2 mM Glutamine, 2 g/L glucose and 10 % FBS. 1 mg Methotrexate hydrate (Sigma Aldrich, Buchs SG, Switzerland) was dissolved in 10 µL 1 M sodium hydroxide and diluted with phosphate buffered saline to 1 mL and sterile filtered (2.2 mM Stock solution). At 80 % cell confluence, 20 µM Methotrexate was added to the treatment group (180 µL stock solution per 20 mL medium). 180 µL of phosphate buffered saline containing 1 % (v/v) 1 M sodium hydroxide was added to the control group. 16 h post treatment, cells were harvested by trypsinization and centrifuged at 4 °C and 400 g for 5 min. The supernatant was removed and the cell pellet was briefly washed with 1 mL PBS.
# Stabilisation by reductive alkylation according to the present invention: The cell pellet was then resuspended in 0.5 mL ice cold 80 % methanol, containing 30 mM NaCNBD3, 0.2 % Formaldehyde-13C, d2 and 0.1 % acetic acid by pipetting. Samples were incubated on ice for 60 min for the stabilisation of the folate species naturally present in the cells to continue.
# Subsequent steps were carried out as described for E.coli in Example 8.
# [4] = tested on: E. coli K12; conditions: 10 µM
# Description: 50 mL LB-Miller medium was inoculated from an overnight culture of E. coli K12 to an OD600 of 0.1 and grown at 37 °C in a 500 mL flask shaking at 300 rpm. OD was measured at 0, 60, 90 min and immediately before harvesting. After reaching an OD of 0.4, trimethoprim was added to the treatment group (5 biological replicates) (0.15 mL of a 1 mg/mL stock solution in methanol; target concentration 10 µM) and the same volume of methanol was added to the control group (5 biological replicates). […] The supernatant was removed.
# Stabilisation by reductive alkylation according to the present invention: The cells were immediately resuspended in the stabilising liquid of 0.5 mL ice cold 80 % methanol containing 30 mM NaCNBD3, 0.2 % Formaldehyde-^13C, d2 and 0.1 % acetic acid by pipetting. Samples were incubated on ice for 60 min for the stabilisation of the folate species naturally present in the cells to continue.
# Samples were then transferred to microcentrifuge tubes and centrifuged at 16,000 g for 1 min. Supernatants were transferred to a new tube and the pellet was resuspended in 0.5 mL ice cold 80 % methanol, 0.1 % acetic acid and incubated in sonic bath for 15 min. After sonication, the suspension was centrifuged at 16,000 g for 3 min and the supernatant was combined with the previous supernatant. An aliquot of 50 µL was subjected to MS analysis according to Example 2 (not concentrated sample). The remaining 950 µL were dried in a rotary evaporator and resuspended by sonication in 50 µL 80 % methanol, 0.1 % acetic acid for 15 min. Samples were centrifuged at 16,000 g for 3 min and the supernatant was analysed in MS according to Example 2 (concentrated sample).
# [5] = 50:50 methanol:water, 0.1% ascorbic acid, 20 mM ammonium acetate, pH = 6.2, 4 °C
# [6] = 30 min, vs control, p < 0.001, Fig. 7C
smiles,measurement,setting,value
"Nc1nc2c(c(=O)[nH]1)[N+]1=CN(c3ccc(C(=O)NC(CCC(=O)O)C(=O)O)cc3)CC1CN2 (stereo not shown) [5,10-methenyl THF]",half life (degradation to 5- or 10-formyl THF),[1]; [5],less than 3 h
same,signal at the retention time of 10 min relative to that obtained by flow injection,"[1]; chromatographic conditions pH 9.2, 30 °C",11 % (AUC)
"Nc1nc2c(c(=O)[nH]1)N1CN(c3ccc(C(=O)NC(CCC(=O)O)C(=O)O)cc3)CC1CN2 (stereo not shown) [5,10-methylen folate, 5,10-methylene THF]",dissociation to formaldehyde and THF,[2],dissociate rapidly
same,half life,[1]; [5],below 30 min
"Nc1nc2c(c(=O)[nH]1)N=C(CNc1ccc(C(=O)N[C@@H](CCC(=O)O)C(=O)O)cc1)CN2 [DHF, dihydrofolic acid]",oxidation upon addition of ascorbic acid,"[1]; 0.1% ascorbic acid, pH = 6.2, 4 °C",to some extent
"CN(Cc1cnc2nc(N)nc(N)c2n1)c1ccc(C(=O)N[C@@H](CCC(=O)O)C(=O)O)cc1 [methotrexate, Methotrexate hydrate]",domino effect,[3],No domino effect was observed
same,AICAR,[3]; vs control,upregulated
same,SAH,[3]; vs control,reduced significantly
same,SAM,[3]; vs control,reduced significantly
same,SAM to SAH ratio,[3]; vs control,reduced significantly
same,inosine monophosphate,[3]; vs control,upregulated
same,levels of thymidine,[3]; vs control,did not change
same,serine,"[3]; vs control, Fig. 8B",significantly reduced
same,reduced folates,"[3]; vs control, most of the reduced folates, Fig. 8A",significantly reduced
same,oxidized pteridines,"[3]; vs control, with the exception of DHF-Glu2, Fig. 8A",no significant increase
COc1cc(Cc2cnc(N)nc2N)cc(OC)c1OC [trimethoprim],"domino effect (increase of reduced folates with low glutamation number, n = 1-2)","[4]; 30 min, most pronounced for THF and 5,10-methenyl THF, Fig. 7B",could be observed
same,SAM to S-adenosyhomocysteine (SAH) ratio,"[4]; 30 min, vs control",not altered
same,"folates with oxidized pteridine ring (DHF, FA)","[4]; 30 min, vs control, Fig. 7A",marked increase
same,poly-glutamated species with a reduced ring,"[4]; 30 min, vs control, Fig. 7A",depleted
same,AICAR,[4]; [6],significantly enriched
same,thymidine,[4]; [6],significantly downregulated
same,mean OD600,"[4]; 30 min after adding, control group 0.71",0.63
